Our source for the T/C values is PubChem BioAssay AID264 (DTP/NCI, 2004).

“And” between values parts separate entries of the source, which are not always exact repeats. Identical values can stand only once. Results filed as inconclusive are left out.

The subject of this assay is nude mice, LX-1 lung xenograft intrarenal, tumor weight T/C. In words: NCI In Vivo Anticancer Drug Screen. Data for tumor model Human Lung LX-1 Xenograft (intrarenal inoculation) in NU/NU Swiss (nude) mice. The settings on record: endpoint: mean tumor weight change, higher = larger tumour. Put shortly:
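Antitumor effect is expressed as a ratio: the mean tumor measurement of the drug-treated group relative to that of the vehicle-dosed control group.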

Setting [1] is: dose: 300.0 mg/kg/injection, schedule: Q04DX003 (sc), vehicle: saline with Tween-80.
Setting [2] is: dose: 600.0 mg/kg/injection, schedule: Q04DX003 (sc), vehicle: saline with Tween-80.
Setting [3] is: dose: 1200.0 mg/kg/injection, schedule: Q04DX003 (sc), vehicle: saline with Tween-80.
Setting [4] is: dose: 2400.0 mg/kg/injection, schedule: Q04DX003 (sc), vehicle: saline with Tween-80.
The mark [5] stands for this setting: dose: 75.0 mg/kg/injection, schedule: Q04DX003 (sc), vehicle: saline with Tween-80.
Setting [6] is: dose: 150.0 mg/kg/injection, schedule: Q04DX003 (sc), vehicle: saline with Tween-80.
[7] abbreviates: dose: 300.0 mg/kg/injection, schedule: Q04DX003 (sc), vehicle: Klucel (hydroxypropylcellulose) (HPC).
Where [8] appears, read: dose: 600.0 mg/kg/injection, schedule: Q04DX003 (sc), vehicle: Klucel (hydroxypropylcellulose) (HPC).
Where [9] appears, read: dose: 1200.0 mg/kg/injection, schedule: Q04DX003 (sc), vehicle: Klucel (hydroxypropylcellulose) (HPC).
Setting [10] is: dose: 75.0 mg/kg/injection, schedule: Q04DX003 (sc), vehicle: saline.

In the case of `CC(=O)Nc1ccc(S(=O)(=O)CO)cc1`, the T/C under setting [1] is 90 % of control, the T/C under setting [2] was 66 % of control, the T/C under setting [3] was 96 % of control and the T/C under setting [4] is 67 % of control.
As for `Oc1cc2ccccc2c(-c2c(O)c(O)cc3ccccc23)c1O`, the T/C was 85 % of control under setting [5], 108 % of control under setting [6], 42 % of control under setting [1] and 52 % of control under setting [2].
With `CCSC(=O)N1c2ccc(OC)cc2C=CC1C#N` (stereo not given), the T/C under setting [4] was 32 % of control (2×) and 40 % of control; the T/C (dose: 4800.0 mg/kg/injection, schedule: Q04DX003 (sc), vehicle: saline with Tween-80) was 16 % of control and 17 % of control and 23 % of control.
Regarding `O=C(O)CCCc1ccc(N(CCCl)CCCl)cc1`, the T/C (dose: 16.0 mg/kg/injection, schedule: Q01DX010 (sc), vehicle: saline with Tween-80) is 30 % of control.
For the compound `NCCCC(N)(C(=O)O)C(F)F` (stereo not given), the T/C (dose: 300.0 mg/kg/injection, schedule: Q04DX003 (sc), vehicle: distilled water + alcohol) was 101 % of control; the T/C (dose: 600.0 mg/kg/injection, schedule: Q04DX003 (sc), vehicle: distilled water + alcohol) was 87 % of control; the T/C (dose: 1200.0 mg/kg/injection, schedule: Q04DX003 (sc), vehicle: distilled water + alcohol) is 82 % of control; the T/C (dose: 2400.0 mg/kg/injection, schedule: Q04DX003 (sc), vehicle: distilled water + alcohol) is 92 % of control.
Take `NC(=S)N/N=C/c1ccc(OC(=O)COc2ccc(Cl)cc2)cn1`: the T/C under setting [1] was 54 % of control, the T/C under setting [2] was 44 % of control and the T/C under setting [3] was 23 % of control.
For the compound `Clc1ccc(C2SC=Cc3ccccc32)cc1` (stereo not given), the T/C runs as follows: under setting [7], 64 % of control; under setting [8], 47 % of control; under setting [9], 106 % of control.
In the case of `COc1cc2c(cc1O)N=C[C@@H]1CCC(O)N1C2=O` (mixture of isomers), the T/C (dose: 4.0 mg/kg/injection, schedule: Q01DX010 (sc), vehicle: saline) is 213 % of control.
With `ClCc1ccc2ccccc2n1`, the T/C by setting is: under setting [6], 158 % of control; under setting [1], 105 % of control; under setting [2], 77 % of control.
Consider `N[C@H](C(=O)O)[C@@H]1CC(Cl)=NO1`, for which the T/C was 16 % of control (dose: 2.0 mg/kg/injection, schedule: Q01DX010 (sc), vehicle: saline); 30 % of control (dose: 2.0 mg/kg/injection, schedule: Q01DX010 (sc), vehicle: suspension in saline); 33 % of control (dose: 4.0 mg/kg/injection, schedule: Q01DX010 (sc), vehicle: suspension in saline); 45 % of control (dose: 8.0 mg/kg/injection, schedule: Q01DX010 (sc), vehicle: suspension in saline); 15 % of control (dose: 16.0 mg/kg/injection, schedule: Q01DX010 (sc), vehicle: suspension in saline).
With `O=c1[nH]cc(F)c(=O)[nH]1`, the T/C runs as follows: (dose: 5.0 mg/kg/injection, schedule: Q01DX010 (sc), vehicle: saline) 107 % of control; (dose: 20.0 mg/kg/injection, schedule: Q01DX010 (sc), vehicle: saline) 56 % of control; (dose: 40.0 mg/kg/injection, schedule: Q01DX010 (sc), vehicle: saline) 25 % of control.
For `O=C(O)C(O)C(O)C1[O][Sb][O]C1C(=O)O` (stereo not given), the T/C is 106 % of control (dose: 37.5 mg/kg/injection, schedule: Q04DX003 (sc), vehicle: saline) and 105 % of control under setting [10].
With `COCCCNC1=C(C#N)C(=O)NC(c2cccc([N+](=O)[O-])c2)S1` (stereo not given), the T/C by setting is: under setting [1], 109 % of control; under setting [2], 78 % of control; under setting [3], 124 % of control; under setting [4], 68 % of control.
Take `COc1ccc(S(=O)(=O)N=N/C=C2\C=CC=CN2O)cc1OC`: the T/C reads like this: under setting [5], 111 % of control; under setting [6], 124 % of control; under setting [2], 11 % of control.
With `CCOC(=O)Nc1cc2c(c(N)n1)N=C(c1ccc(Cl)cc1Cl)CN2`, the T/C reads like this: (dose: 37.5 mg/kg/injection, schedule: Q04DX003 (sc), vehicle: saline with Tween-80) 82 % of control; under setting [5], 76 % of control; under setting [6], 64 % of control; under setting [1], 66 % of control.
In the case of `Oc1c(Cl)cc(C(c2cc(Cl)c(O)c(Cl)c2)C(c2cc(Cl)c(O)c(Cl)c2)c2cc(Cl)c(O)c(Cl)c2)cc1Cl`, the T/C runs as follows: under setting [7], 88 % of control; under setting [8], 66 % of control; under setting [9], 55 % of control; (dose: 2400.0 mg/kg/injection, schedule: Q04DX003 (sc), vehicle: Klucel (hydroxypropylcellulose) (HPC)) 66 % of control.
`Cn1cnc([N+](=O)[O-])c1Sc1ncn[nH]1`: the T/C reads like this: (dose: 100.0 mg/kg/injection, schedule: Q04DX003 (sc), vehicle: suspension in saline) 96 % of control; (dose: 200.0 mg/kg/injection, schedule: Q04DX003 (sc), vehicle: suspension in saline) 96 % of control; (dose: 400.0 mg/kg/injection, schedule: Q04DX003 (sc), vehicle: suspension in saline) 32 % of control.
With `OCCOCC(F)(F)F`, the T/C runs as follows: (dose: 300.0 mg/kg/injection, schedule: Q04DX003 (sc), vehicle: saline) 78 % of control; (dose: 600.0 mg/kg/injection, schedule: Q04DX003 (sc), vehicle: saline) 95 % of control.
In the case of `CSc1cc(C)[o+]c(C)c1`, the T/C was 87 % of control (dose: 100.0 mg/kg/injection, schedule: Q04DX003 (sc), vehicle: Klucel (hydroxypropylcellulose) (HPC)) and 76 % of control (dose: 200.0 mg/kg/injection, schedule: Q04DX003 (sc), vehicle: Klucel (hydroxypropylcellulose) (HPC)).
Consider `C1CC[N-]CC1.C1CC[N-]CC1.C1CC[N-]CC1.[Cl][Rh]([Cl])[Cl]`, for which the T/C was 78 % of control under setting [10] and 87 % of control (dose: 150.0 mg/kg/injection, schedule: Q04DX003 (sc), vehicle: saline).
As for `C/C(=N/NC(N)=S)c1ccc2ccccc2c1`, the T/C is, setting by setting: (dose: 12.5 mg/kg/injection, schedule: Q01DX010 (sc), vehicle: saline with Tween-80) 63 % of control; (dose: 25.0 mg/kg/injection, schedule: Q01DX010 (sc), vehicle: saline with Tween-80) 42 % of control; (dose: 200.0 mg/kg/injection, schedule: Q01DX010 (sc), vehicle: saline with Tween-80) 61 % of control; (dose: 400.0 mg/kg/injection, schedule: Q01DX010 (sc), vehicle: saline with Tween-80) 39 % of control.
For the compound `C[C@@H](CN1CC(=O)NC(=O)C1)N1CC(=O)NC(=O)C1`, the T/C reads like this: (dose: 50.0 mg/kg/injection, schedule: Q01DX010 (sc), vehicle: saline with Tween-80) 91 % of control; (dose: 100.0 mg/kg/injection, schedule: Q01DX010 (sc), vehicle: saline with Tween-80) 34 % of control.
